{"source": "patent US3984548A", "about": "“Substituted pyrido[1,2,3,-de]-1,4-benzoxazines as bactericides” (Riker Laboratories, Inc., priority 1974, dated 1976)", "type_in_all_cases": "cell-based", "parameters_in_all_cases": "key: +: active; -: inactive", "settings_in_all_cases": "agar plates, 1 to 100 milligrams/liter", "key": {"Pseudmonas aeruginosa": {"test_system": "Pseudmonas aeruginosa", "experiment": "standard plate dilution method, Pseudomonas aeruginosa", "experimental": "(§1) The culture medium employed permits susceptibility testing of fastidious microorganisms towards antibiotics, sulfonamides and other chemotherapeutic agents. Tryptone soy agar (oxoid) of the following composition is the culture medium. In the test procedure, the amount of a compound required to give complete inhibition or no inhibition of the microbial growth on the agar plates was determined. The compound selected for evaluation is added to the agar medium to give concentrations of one, ten and one hundred milligrams per liter. A series of plates with these concentrations is prepared. Plates containing agar alone are included as controls. Ten percent horse serum is added to one series of such plates. Aliquots of broth culture of each of nine species of microorganisms are innoculated onto the agar plates containing the various compound concentrations and onto the control plates. The plates are incubated at 37° C. in a 10 percent carbon dioxide atmosphere for 18 to 25 hours. The microbial growth on each plate is read visually, and minimal inhibitory concentrations are recorded."}, "Bacillus Subtilus": {"test_system": "Bacillus Subtilus", "experiment": "standard plate dilution method, Bacillus subtilus", "experimental": "as §1"}, "Mima polymorpha": {"test_system": "Mima polymorpha", "experiment": "standard plate dilution method, Mima polymorpha", "experimental": "as §1"}, "Staphylococcus aureus": {"test_system": "Staphylococcus aureus", "experiment": "standard plate dilution method, Staphylococcus aureus", "experimental": "as §1"}, "Escherichia coli": {"test_system": "Escherichia coli", "experiment": "standard plate dilution method, Escherichia coli", "experimental": "as §1"}, "Streptococcus Sp": {"test_system": "Streptococcus Sp", "experiment": "standard plate dilution method, Streptococcus sp.", "experimental": "as §1"}, "Herellea vaginicola": {"test_system": "Herellea vaginicola", "experiment": "standard plate dilution method, Herellea vaginicola", "experimental": "as §1"}}, "data": [{"smiles": "Cc1ccc2c(=O)c(C(=O)O)cn3c2c1OCC3C", "note": "(stereo not drawn) [Example 39 (acid)]", "values": [{"measurement": "Microorganism PA (growth inhibition)", "setting": "Pseudmonas aeruginosa", "value": "+"}, {"measurement": "Microorganism BS (growth inhibition)", "setting": "Bacillus Subtilus", "value": "+"}, {"measurement": "Microorganism MP (growth inhibition)", "setting": "Mima polymorpha", "value": "+"}, {"measurement": "Microorganism SA (growth inhibition)", "setting": "Staphylococcus aureus", "value": "-"}, {"measurement": "Microorganism EC (growth inhibition)", "setting": "Escherichia coli", "value": "+"}, {"measurement": "Microorganism SS (growth inhibition)", "setting": "Streptococcus Sp", "value": "+"}, {"measurement": "Microorganism HV (growth inhibition)", "setting": "Herellea vaginicola", "value": "+"}]}, {"smiles": "CCOC(=O)c1cn2c3c(c(C)ccc3c1=O)OCC2C", "note": "(stereo not drawn) [Example 39 (ester)]", "values": [{"measurement": "Microorganism PA (growth inhibition)", "setting": "Pseudmonas aeruginosa", "value": "+"}, {"measurement": "Microorganism BS (growth inhibition)", "setting": "Bacillus Subtilus", "value": "-"}, {"measurement": "Microorganism MP (growth inhibition)", "setting": "Mima polymorpha", "value": "-"}, {"measurement": "Microorganism SA (growth inhibition)", "setting": "Staphylococcus aureus", "value": "-"}, {"measurement": "Microorganism EC (growth inhibition)", "setting": "Escherichia coli", "value": "+"}, {"measurement": "Microorganism SS (growth inhibition)", "setting": "Streptococcus Sp", "value": "+"}, {"measurement": "Microorganism HV (growth inhibition)", "setting": "Herellea vaginicola", "value": "-"}]}, {"smiles": "Cc1cc2c3c(c1C)c(=O)c(C(=O)O)cn3C(C)CO2", "note": "(stereo not drawn) [Example 40 (acid)]", "values": [{"measurement": "Microorganism PA (growth inhibition)", "setting": "Pseudmonas aeruginosa", "value": "+"}, {"measurement": "Microorganism BS (growth inhibition)", "setting": "Bacillus Subtilus", "value": "+"}, {"measurement": "Microorganism MP (growth inhibition)", "setting": "Mima polymorpha", "value": "+"}, {"measurement": "Microorganism SA (growth inhibition)", "setting": "Staphylococcus aureus", "value": "+"}, {"measurement": "Microorganism EC (growth inhibition)", "setting": "Escherichia coli", "value": "+"}, {"measurement": "Microorganism SS (growth inhibition)", "setting": "Streptococcus Sp", "value": "+"}, {"measurement": "Microorganism HV (growth inhibition)", "setting": "Herellea vaginicola", "value": "+"}]}, {"smiles": "Cc1cc(Cl)c2c(=O)c(C(=O)O)cn3c2c1OCC3C", "note": "(stereo not drawn) [Example 41 (acid)]", "values": [{"measurement": "Microorganism PA (growth inhibition)", "setting": "Pseudmonas aeruginosa", "value": "-"}, {"measurement": "Microorganism BS (growth inhibition)", "setting": "Bacillus Subtilus", "value": "+"}, {"measurement": "Microorganism MP (growth inhibition)", "setting": "Mima polymorpha", "value": "-"}, {"measurement": "Microorganism SA (growth inhibition)", "setting": "Staphylococcus aureus", "value": "+"}, {"measurement": "Microorganism EC (growth inhibition)", "setting": "Escherichia coli", "value": "+"}, {"measurement": "Microorganism SS (growth inhibition)", "setting": "Streptococcus Sp", "value": "-"}, {"measurement": "Microorganism HV (growth inhibition)", "setting": "Herellea vaginicola", "value": "+"}]}, {"smiles": "CCOC(=O)c1cn2c3c(c(C)cc(Cl)c3c1=O)OCC2C", "note": "(stereo not drawn) [Example 41 (ester)]", "values": [{"measurement": "Microorganism PA (growth inhibition)", "setting": "Pseudmonas aeruginosa", "value": "-"}, {"measurement": "Microorganism BS (growth inhibition)", "setting": "Bacillus Subtilus", "value": "+"}, {"measurement": "Microorganism MP (growth inhibition)", "setting": "Mima polymorpha", "value": "-"}, {"measurement": "Microorganism SA (growth inhibition)", "setting": "Staphylococcus aureus", "value": "+"}, {"measurement": "Microorganism EC (growth inhibition)", "setting": "Escherichia coli", "value": "+"}, {"measurement": "Microorganism SS (growth inhibition)", "setting": "Streptococcus Sp", "value": "-"}, {"measurement": "Microorganism HV (growth inhibition)", "setting": "Herellea vaginicola", "value": "+"}]}, {"smiles": "Cc1cc(C)c2c(=O)c(C(=O)O)cn3c2c1OCC3C", "note": "(stereo not drawn) [Example 42 (acid)]", "values": [{"measurement": "Microorganism PA (growth inhibition)", "setting": "Pseudmonas aeruginosa", "value": "+"}, {"measurement": "Microorganism BS (growth inhibition)", "setting": "Bacillus Subtilus", "value": "+"}, {"measurement": "Microorganism MP (growth inhibition)", "setting": "Mima polymorpha", "value": "+"}, {"measurement": "Microorganism SA (growth inhibition)", "setting": "Staphylococcus aureus", "value": "+"}, {"measurement": "Microorganism EC (growth inhibition)", "setting": "Escherichia coli", "value": "+"}, {"measurement": "Microorganism SS (growth inhibition)", "setting": "Streptococcus Sp", "value": "+"}, {"measurement": "Microorganism HV (growth inhibition)", "setting": "Herellea vaginicola", "value": "+"}]}, {"smiles": "CCOC(=O)c1cn2c3c(c(C)cc(C)c3c1=O)OCC2C", "note": "(stereo not drawn) [Example 42 (ester)]", "values": [{"measurement": "Microorganism PA (growth inhibition)", "setting": "Pseudmonas aeruginosa", "value": "-"}, {"measurement": "Microorganism BS (growth inhibition)", "setting": "Bacillus Subtilus", "value": "+"}, {"measurement": "Microorganism MP (growth inhibition)", "setting": "Mima polymorpha", "value": "-"}, {"measurement": "Microorganism SA (growth inhibition)", "setting": "Staphylococcus aureus", "value": "-"}, {"measurement": "Microorganism EC (growth inhibition)", "setting": "Escherichia coli", "value": "-"}, {"measurement": "Microorganism SS (growth inhibition)", "setting": "Streptococcus Sp", "value": "-"}, {"measurement": "Microorganism HV (growth inhibition)", "setting": "Herellea vaginicola", "value": "-"}]}, {"smiles": "O=C(O)c1cn2c3c(cc(F)cc3c1=O)OCC2", "note": "[Example 43 (acid)]", "values": [{"measurement": "Microorganism PA (growth inhibition)", "setting": "Pseudmonas aeruginosa", "value": "-"}, {"measurement": "Microorganism BS (growth inhibition)", "setting": "Bacillus Subtilus", "value": "+"}, {"measurement": "Microorganism MP (growth inhibition)", "setting": "Mima polymorpha", "value": "-"}, {"measurement": "Microorganism SA (growth inhibition)", "setting": "Staphylococcus aureus", "value": "+"}, {"measurement": "Microorganism EC (growth inhibition)", "setting": "Escherichia coli", "value": "+"}, {"measurement": "Microorganism SS (growth inhibition)", "setting": "Streptococcus Sp", "value": "+"}, {"measurement": "Microorganism HV (growth inhibition)", "setting": "Herellea vaginicola", "value": "+"}]}, {"smiles": "CC1COc2ccc([N+](=O)[O-])c3c(=O)c(C(=O)O)cn1c23", "note": "(stereo not drawn) [Example 44, 2,3-dihydro-3-methyl-8-nitro-7-oxo-7H-pyrido[1,2,3-de]-1,4-benzoxazine-6-carboxylic acid]", "values": [{"measurement": "Microorganism PA (growth inhibition)", "setting": "Pseudmonas aeruginosa", "value": "-"}, {"measurement": "Microorganism BS (growth inhibition)", "setting": "Bacillus Subtilus", "value": "+"}, {"measurement": "Microorganism MP (growth inhibition)", "setting": "Mima polymorpha", "value": "-"}, {"measurement": "Microorganism SA (growth inhibition)", "setting": "Staphylococcus aureus", "value": "+"}, {"measurement": "Microorganism EC (growth inhibition)", "setting": "Escherichia coli", "value": "+"}, {"measurement": "Microorganism SS (growth inhibition)", "setting": "Streptococcus Sp", "value": "-"}, {"measurement": "Microorganism HV (growth inhibition)", "setting": "Herellea vaginicola", "value": "+"}]}]}
